Earlier results in patent US6436949B1, “Heterocyclically substituted benzamides and their use” (Abbott Laboratories, priority 1996, dated 2002).

What was measured:
calpain [1] = conditions: activated platelets; J. Biol. Chem., 1993, Vol 268, 12603-12608
calpain [2] = conditions: J.Med.Chem. 1990,33, 11-13

CCCC[C@@H](C=O)NC(=O)[C@H](CC(C)C)NC(=O)OCc1ccccc1 [calpeptin]
cleavage of pp60src (calpain [1]): can be prevented

Ph—CONH—CH(CH2Ph)—CO—COCOOCH3
inhibition of calpain (calpain [2]): weak inhibitor of calpain
